Laboratory results as given in patent US9000022B2 (Exelixis Patent Company LLC, priority 2005, dated 2015).

Tested on: LXRα and/or LXRβ
Experiment: Co-transfection assay (LXRE luciferase reporter, CV-1 cells)
Type: cell-based, human
Conditions: read-out: activity (IC50 or EC50 for LXR), tested as described in Example 33, isoform not specified
Text: To measure the ability of compounds to activate or inhibit the transcriptional activity of LXR in a cell based assay, the co-transfection assay was used. It has been shown that LXR functions as a heterodimer with RXR. For the co-transfection assay, expression plasmids for LXR and RXR are introduced via transient transfection into mammalian cells along with a luciferase reporter plasmid that contains one copy of a DNA sequence that is bound by LXR-RXR heterodimers (LXRE; Willy, P. et. al. 1995). Treatment of transfected cells with an LXR agonist increases the transcriptional activity of LXR, which is measured by an increase in luciferase activity.
CV-1 African Green Monkey Kidney Cells Co-transfection expression plasmids, comprising full-length LXRα (pCMX-h LXRα, LXRβ (pCMX-hLXRβ), or RXRα (pCMX-RXR), reporter plasmid (LXREx1-Tk-Luciferase), and control (pCMX-Galactosidase expression vector) (Willey et al. Genes & Development 9 1033-1045 (1995)). Transfection reagent such as FuGENE6 (Roche). 1× Cell lysis buffer (1% Triton X 100 (J T Baker X200-07), 10% Glycerol (J T Baker M778-07), 5 mM Ditriotreitol (Quantum Bioprobe DTT03; add fresh before lysing), 1 mM EGTA (Ethylene Glycol-bis(B-Amino ethyl ether)-N,N,N′,N′-Tetracetic Acid) (Sigma E-4378), 25 mM Tricine (ICN 807420) pH 7.8) 1× Luciferase assay buffer (pH at 7.8) (0.73 mM ATP, 22.3 mM Tricine, 0.11 mM EDTA, 33.3 mM DTT) 1× Luciferrin/CoA (11 mM Luciferin, 3.05 mM Coenzyme A, 10 mM HEPES)
CV-1 cells were prepared 24 hours prior to the experiment by plating them into T-175 flasks or 500 cm^2 dishes in order to achieve 70-80% confluency on the day of the transfection. The number of cells to be transfected was determined by the number of plates to be screened. Each 384 well plate requires 1.92×10^6 cells or 5000 cells per well. DNA Transfection Reagent was prepared by mixing the required plasmid DNAs with a cationic lipid transfection reagent FuGENE6 (Roche) by following the instructions provided with the reagents. Optimal DNA amounts were determined empirically per cell line and size of vessel to be transfected. 10-12 mL of media was added to the DNA Transfection Reagent and this mixture was added to the cells after aspirating media from the T175 cm^2 flask. Cells were then incubated at least 5 hours at 37° C. to prepare screening cells.
Luciferase assay reagent was prepared by combining before use (per 10 mL): 10 mL 1× Luciferase assay buffer; 0.54 mL of 1× Luciferrin/CoA; 0.54 mL of 0.2 M Magnesium sulfate
Assay plates were prepared by dispensing 5 μL, of compound per well of a 384 well plate to achieve final compound concentration of 10 μM and no more than 1% DMSO. Media was removed from the screening cells, the cells trypsinized, harvested cells by centrifugation, counted, and plated at a density of approximately 5000 cells per well in the 384 well assay plate prepared above in a volume of about 45 μL. Assay plates containing both compounds and screening cells (50 μL in total volume) were incubated for 20 hours at 37° C.
After incubation with compounds, media was removed from the cells and lysis buffer (30 μL/well) added. After 30 minutes at ambient temperature, luciferase assay buffer (30 μL/well) was added and the assay plates read on a luminometer (PE Biosystems Northstar reader with on-board injectors, or equivalent). Plates were read immediately after addition of luciferase assay buffer.
The LXR/LNRE co-transfection assay can be used to establish the EC50/IC50 values for potency and percent activity or inhibition for efficacy. Efficacy defines the activity of a compound relative to a high control ((N-(3-((4-fluorophenyl)-(naphthalene-2-sulfonyl)amino)propyl)-2,2-dimethylpropionamide)) or a low control (DMSO/vehicle). The dose response curves are generated from an 8 point curve with concentrations differing by ½ LOG units. Each point represents the average of 4 wells of data from a 384 well plate. […]

Structure (SMILES) | EC50 [nM]
CC(C)(O)c1cn(-c2ccc(-c3cccc(S(C)(=O)=O)c3)cc2Cl)c(Cc2cccc(Cl)c2Cl)n1 [Example 25, 2-(1-(3-chloro-3′-(methyl-sulfonyl)biphenyl-4-yl)-2-(2,3-dichlorobenzyl)-1H-imidazol-4-yl)propan-2-ol] | < 1000
CCS(=O)(=O)c1cccc(-c2ccc(-n3cc(C(C)(C)O)nc3Cc3cccc(Cl)c3Cl)c(Cl)c2)c1 [Example 26, 2-(1-(3-chloro-3′-(ethyl-sulfonyl)biphenyl-4-yl)-2-(2,3-dichlorobenzyl)-1H-imidazol-4-yl)propan-2-ol] | < 1000

Same assay, conditions: tested as described in Example 33; IC50 or EC50 for LXRα and/or LXRβ, isoform not specified; read-out: activity (IC50 or EC50 for LXR)

Structure (SMILES) | IC50 or EC50 (potency, activation or inhibition) [nM]
CCS(=O)(=O)c1cccc(-c2ccc(-c3nc(C(C)(C)O)cn3-c3ccccc3C(C)C)c(C)c2)c1 [Example 62, 2-(2-(3′-(ethylsulfonyl)-3-methyl-biphenyl-4-yl)-1-(2-isopropylphenyl)-1H-imidazol-4-yl)propan-2-ol] | < 1000
CS(=O)(=O)c1cccc(-c2ccc(-n3cc(C(=O)NCCF)nc3-c3c(Cl)cccc3Cl)c(Cl)c2)c1 [Example 460, 1-(3-chloro-3′-(methyl-sulfonyl)biphenyl-4-yl)-2-(2,6-dichlorophenyl)-N-(2-fluoroethyl)-1H-imidazole-4-carboxamide] | < 1000
CCC(O)(CC)c1cn(-c2ccc(-c3cccc(S(=O)(=O)CC)c3)cc2)c(Cc2ccccc2Cl)n1 [Example 14] | < 1000
CCS(=O)(=O)c1cccc(-c2ccc(-c3nc(C(C)(C)O)cn3-c3c(C)cccc3C(C)C)c(C)c2)c1 [Example 60, 2-(2-(3′-(ethylsulfonyl)-3-methyl-biphenyl-4-yl)-1-(2-isopropyl-6-methylphenyl)-1H-imidazol-4-yl)propan-2-ol] | < 1000
Cc1cc(-c2cccc(S(C)(=O)=O)c2)ccc1-n1cc(C(C)(C)O)nc1-c1ccccc1C(C)C [Example 195, 2-(2-(2-isopropylphenyl)-1-(3-methyl-3′-(methylsulfonyl)biphenyl-4-yl)-1H-imidazol-4-yl)propan-2-ol] | < 1000
CCS(=O)(=O)c1cccc(-c2ccc(-n3cc(C(C)(C)O)nc3-c3c(Cl)cccc3Cl)c(C)c2)c1 [Example 182, 2-(2-(2,6-dichlorophenyl)-1-(3′-(ethylsulfonyl)-3-methylbiphenyl-4-yl)-1H-imidazol-4-yl)propan-2-ol] | < 1000
Cc1cc(-c2cccc(S(C)(=O)=O)c2)ccc1-n1cc(C(C)(C)O)nc1-c1cccc(F)c1Cl [Example 185, 2-(2-(2-chloro-3-fluorophenyl)-1-(3-methyl-3′-(methylsulfonyl)biphenyl-4-yl)-1H-imidazol-4-yl)propan-2-ol] | < 1000
CC(C)(O)c1cn(-c2ccc(-c3cccc(S(C)(=O)=O)c3)cc2)c(-c2c(F)cccc2F)n1 [Example 410, 2-{2-(2,6-difluorophenyl)-1-[3′-(methylsulfonyl)biphenyl-4-yl]-1H-imidazol-4-yl}propan-2-ol] | 1000 to 10000
CS(=O)(=O)c1cccc(-c2ccc(-n3cc(C(=O)NCCF)nc3-c3c(Cl)cccc3Cl)cc2)c1 [Example 88, 2-(2,6-dichlorophenyl)-N-(2-fluoroethyl)-1-(3′-(methyl-sulfonyl)biphenyl-4-yl)-1H-imidazole-4-carboxamide] | < 1000
Cc1cc(-c2ccc(-n3cc(C(C)(C)O)nc3-c3c(Cl)cccc3Cl)cc2)cc(S(C)(=O)=O)c1 [Example 106, 2-(2-(2,6-dichlorophenyl)-1-(′3-methyl-5′-(methyl-sulfonyl)biphenyl-4-yl)-1H-imidazol-4-yl)propan-2-ol] | 1000 to 10000
CC(C)(O)c1cn(-c2ccc(-c3ccc(C(C)(C)O)c(S(C)(=O)=O)c3)cc2Cl)c(-c2c(F)cccc2Cl)n1 [Example 164, 2-(3′-chloro-4′-(2-(2-chloro-6-fluorophenyl)-4-(2-hydroxypropan-2-yl)-1H-imidazol-1-yl)-3-(methyl-sulfonyl)biphenyl-4-yl)propan-2-ol] | 1000 to 10000
CC(C)(O)c1cn(-c2ccc(-c3cccc(S(C)(=O)=O)c3)cc2F)c(-c2c(Cl)cccc2Cl)n1 [Example 115, 2-(2-(2,6-dichlorophenyl)-1-(3-fluoro-3′-(methylsulfonyl)biphenyl-4-yl)-1H-imidazol-4-yl)propan-2-ol] | < 1000
CCS(=O)(=O)c1cccc(-c2ccc(-n3cc(C(C)(C)O)nc3-c3cccc(Cl)c3C)c(F)c2)c1 [Example 119, 2-(2-(3-chloro-2-methylphenyl)-1-(3′-(ethylsulfonyl)-3-fluorobiphenyl-4-yl)-1H-imidazol-4-yl)propan-2-ol] | < 1000
Cc1cc(-c2ccc(C(=O)O)cc2Cl)ccc1-n1cc(C(C)(C)O)nc1-c1c(Cl)cccc1Cl [Example 466, 2-chloro-4′-(2-(2,6-dichlorophenyl)-4-(2-hydroxypropan-2-yl)-1H-imidazol-1-yl)-3′-methylbiphenyl-4-carboxylic acid] | > 10000
Cc1cc(-c2ccc(CO)c(S(C)(=O)=O)c2)ccc1-n1cc(C(C)(C)O)nc1-c1ccccc1C(F)(F)F [Example 171] | < 1000
CCS(=O)(=O)c1cccc(-c2cc(C)c(-n3cc(C(C)(C)O)nc3-c3ccccc3Cl)c(Cl)c2)c1 [Example 169, 2-(1-(3-chloro-3′-(ethylsulfonyl)-5-methylbiphenyl-4-yl)-2-(2-chlorophenyl)-1H-imidazol-4-yl)propan-2-ol] | < 1000
CCS(=O)(=O)c1cccc(-c2ccc(-n3cc(C(=O)NCC(C)(C)O)nc3-c3c(Cl)cccc3Cl)c(Cl)c2)c1 [Example 473, 1-(3-chloro-3′-(ethylsulfonyl)biphenyl-4-yl)-2-(2,6-dichlorophenyl)-N-(2-hydroxy-2-methylpropyl)-1H-imidazole-4-carboxamide] | < 1000
CC(C)(O)c1nc(-c2ccccc2C(F)(F)F)n(-c2ccc(-c3cccc(S(C)(=O)=O)c3)cc2)c1Cl [Example 403, 2-{5-chloro-1-[3′-(methyl-sulfonyl)biphenyl-4-yl]-2-[2-(trifluoro-methyl)phenyl]-1H-imidazol-4-yl}propan-2-ol] | < 1000
CC(C)c1cccc(-c2ccc(-n3cc(C(C)(C)O)nc3-c3ccccc3Cl)cc2)c1 [Example 388] | 1000 to 10000
CCc1cc(-c2cccc(S(C)(=O)=O)c2)ccc1-n1cc(C(C)(C)O)nc1-c1ccccc1Cl [Example 170, 2-(2-(2-chlorophenyl)-1-(3-ethyl-3′-(methylsulfonyl)biphenyl-4-yl)-1H-imidazol-4-yl)propan-2-ol] | < 1000
CC(C)(O)c1cn(-c2ccc(-c3cccc(S(C)(=O)=O)c3)cc2F)c(Cc2cccc(Cl)c2Cl)n1 [Example 449, 2-(2-(2,3-dichlorobenzyl)-1-(3-fluoro-3′-(methylsulfonyl)biphenyl-4-yl)-1H-imidazol-4-yl)propan-2-ol] | < 1000
CCS(=O)(=O)c1cccc(-c2ccc(-n3cc(C(C)(C)O)nc3Cc3c(F)cccc3Cl)cc2)c1 [Example 10, 2-(2-(2-chloro-6-fluorobenzyl)-1-(3′-(ethylsulfonyl)biphenyl-4-yl)-1H-imidazol-4-yl)propan-2-ol] | < 1000
